# Assay results from patent US20240115654A1, “INTRAVENOUS ADMINISTRATION OF ENGINEERED ANTIMICROBIAL AMPHIPHILIC PEPTIDES” (priority 2021, published 2024).
# Several values for one entry are separate records, joined by “and”; a condition that tells them apart may be missing. Identical values can stand only once. Like-named read-outs stand apart in the source and are kept apart here. Peptide text beside a SMILES is read from it.
# Key:
# [1] = tested on: Enterococcus faecium isolates (n = 104); test: microbe, parasite or virus in culture
# Procedure: Comparator antibiotics were supplied by Micromyx, and stock solutions were prepared on the first day of testing using solvents recommended by CLSI (1). Stock solutions of all compounds were made at 40× the final testing concentration and stored at −80° C. prior to testing. Information regarding compound source, catalog and lot number, testing concentrations and drug diluent for the comparators and test agent are detailed below in Table 3.
# The test organisms evaluated in this study consisted of clinical isolates from the Micromyx Repository and reference isolates from the American Type Culture Collection (ATCC; Manassas, VA). The clinical isolates were obtained from USA hospitals. Upon initial receipt at Micromyx, the organisms were sub-cultured onto an appropriate agar medium. Following incubation, colonies were harvested from these plates and cell suspensions prepared and frozen at −80° C. with a cryoprotectant. […] Plates were incubated at 35° C. overnight.
# MIC values were determined using a broth microdilution procedure described by CLSI (1, 3).
# The test articles and comparator compounds (300 μl at 40× the highest concentration to be tested) were dispensed into the appropriate wells in column 1. The Biomek 2000 was then used to make 2-fold serial dilutions in the mother plates from column 1 through column 11. The wells of Column 12 contained no drug and served as the organism growth control wells for the assay.
# The daughter plates were completed on the Biomek FX instrument which transferred 5 μL of drug solution from each well of a mother plate to the corresponding well of each daughter plate in a single step. A standardized inoculum of each test organism was prepared per CLSI methods (1). The inoculum for each organism was dispensed into sterile reservoirs divided by length (Beckman Coulter), and the Biomek 2000 was used to inoculate the plates. Daughter plates were placed on the Biomek 2000 work surface in reverse orientation so that inoculation took place from low to high drug concentration.
# Plates were stacked 3-4 high, covered with a lid on the top plate, placed in plastic bags, and incubated at 35° C. for 16 to 20 hrs. Following incubation, the microplates were removed from the incubator and viewed from the bottom using a plate viewer. […] The MIC was read and recorded as the lowest concentration of drug that inhibited visible growth of the organism.
# Clinical breakpoints to determine percent resistance within a given organism group were obtained from CLSI (3), with the exception of colistin for K. pneumoniae, Enterobacter spp., and E. coli, which are only available from EUCAST.
# [2] = 30 min IV infusion
# Procedure: Animals will be obtained from the Test Facility's colony of adult male cynomolgous monkeys (Macaca fascicularis) of Chinese origin. Animals will be weighed prior to dosing.
# Animals will be fasted a minimum of 2 hours prior to procedures requiring the administration of ketamine anesthesia. The diet will also be supplemented with other nutrients by feeding items such as raisins or fresh fruits that are presented to the animal as part of an environmental enrichment program. Offering items known to cause diarrhea will be avoided.
# Intravenous administration will be via 30 minute infusion into a temporary percutaneous catheter placed into a saphenous vein. Prior to and following dose administration, the catheter will be flushed with 0.5 mL saline prior to removal. All dosing syringes will be weighed prior to and following dosing.
# Serial blood samples will be collected via femoral vein (cephalic or saphenous, as necessary). Approximately 1 mL blood samples will be collected into K2EDTA tubes.
# Blood samples will be collected into K2EDTA tubes and stored on wet ice. Whole blood will be processed to plasma by centrifugation (2400-2700 rpm at 5° C.) within 30 minutes of collection. Plasma samples will be split into 2 equal aliquots and stored at −80° C. until analysis.
# Prior to extraction, a known concentration of a mass-adjusted internal standard (IS) will be added to assess recovery and allow for quantitation. Purified samples will be further subjected to high-performance liquid chromatography (HPLC) using C18 300 or 130 angstrom columns prior to MS/MS analysis. Multiple charge states will be observed by MS, so MS/MS will be employed to enable multiple reaction monitoring (MRM) analyses to determine the most MRM transitions with the highest signal-to-noise gain. Compound plasma concentrations will be determined by comparing to and compensating with co-purified IS peak intensity and validated calibrated standard curves.
# Toxicokinetic parameters will be calculated using non-compartmental methods as implemented in the Phoenix® WinNonlin® ver. 6.3 comprehensive TK/PK analysis software program (Pharsight Corporation; Mountain View, CA) using an IV infusion model. Toxicokinetic analysis will be conducted using a 30-minute intravenous infusion time. Therefore, 30 minutes will be added to each sample time point postdose to obtain nominal time for TK analysis. Nominal times and dosage levels will be used for all calculations. Values below the lower limit of quantitation (BLQ) will be assigned a value of zero for the toxicokinetic calculations. Microsoft® Excel® 2013 will be used for receipt of bioanalytical data, minor formatting, including setting BLQ values to “0”, transfer into WinNonlin® for TK analysis, and calculation of the mean when an approximated value will be excluded. All plasma concentration data from all animals will be included in the analysis. Graphical presentations will be performed using Prism® for Macintosh ver. 7.0a (GraphPad, Inc.; La Jolla, CA).
smiles,measurement,setting,value
CC(C)[C@H](NC(=O)[C@H](Cc1c[nH]c2ccccc12)NC(=O)[C@H](CCCNC(=N)N)NC(=O)[C@H](CCCNC(=N)N)NC(=O)[C@@H](NC(=O)[C@@H](NC(=O)[C@H](CCCNC(=N)N)NC(=O)[C@@H](NC(=O)[C@@H](NC(=O)[C@H](CCCNC(=N)N)NC(=O)[C@H](CCCNC(=N)N)NC(=O)[C@H](Cc1c[nH]c2ccccc12)NC(=O)[C@@H](NC(=O)[C@H](CCCNC(=N)N)NC(=O)[C@H](CCCNC(=N)N)NC(=O)[C@@H](NC(=O)[C@H](CCCNC(=N)N)NC(=O)[C@H](CCCNC(=N)N)NC(=O)[C@@H](NC(=O)[C@H](Cc1c[nH]c2ccccc12)NC(=O)[C@H](CCCNC(=N)N)NC(=O)[C@@H](N)CCCNC(=N)N)C(C)C)C(C)C)C(C)C)C(C)C)C(C)C)C(C)C)C(C)C)C(=O)N[C@@H](CCCNC(=N)N)C(=O)N[C@@H](CCCNC(=N)N)C(N)=O [SEQ ID NO: 1] (H-RRWVRRVRRVWRRVVRVVRRWVRR-NH2),MIC50,[1]; Enterococcus faecium (n = 104),1 µg/mL
same,MIC90,[1]; Enterococcus faecium (n = 104),2 µg/mL
same,Mode (MIC),[1]; Enterococcus faecium (n = 104),1 µg/mL
same,MIC50,[1]; isolates (n = 104),0.5 µg/mL
same,MIC90,[1]; isolates (n = 104),1 µg/mL
same,MIC range,[1]; isolates (n = 104),0.25 to 2 µg/mL
same,AUCinf Extrapolated,"[2]; 1 mg/kg, Mean of group",10.0%
same,CL,"[2]; 1 mg/kg, Mean of group",18.5 mL/min/kg
same,Dose Normalized AUClast,"[2]; 1 mg/kg, Mean of group",983
same,Dose Normalized Cmax,"[2]; 1 mg/kg, Mean of group",1710
same,Vss,"[2]; 1 mg/kg, Mean of group",1.38 L/kg
same,CL,"[2]; 1 mg/kg, individual monkeys",9.65 mL/min/kg
same,Dose Normalized AUClast,"[2]; 1 mg/kg, individual monkeys",740 and 1610 and 595
same,Dose Normalized Cmax,"[2]; 1 mg/kg, individual monkeys",1460 and 2660 and 997
same,AUCinf Extrapolated,"[2]; 3 mg/kg, Mean of group",1.5%
same,CL,"[2]; 3 mg/kg, Mean of group",7.18 mL/min/kg
same,Dose Normalized AUClast,"[2]; 3 mg/kg, Mean of group",2530
same,Dose Normalized Cmax,"[2]; 3 mg/kg, Mean of group",3450
same,T1/2,"[2]; 3 mg/kg, Mean of group",5.2 h
same,Tmax,"[2]; 3 mg/kg, Mean of group",6.6 min
same,AUCinf Extrapolated,"[2]; 3 mg/kg, individual monkeys",1.2% and 2.3% and 1.1%
same,Dose Normalized AUClast,"[2]; 3 mg/kg, individual monkeys",2220 and 3660 and 1710
same,Dose Normalized Cmax,"[2]; 3 mg/kg, individual monkeys",2280 and 5170 and 2900
same,T1/2,"[2]; 3 mg/kg, individual monkeys",5 h
same,AUCinf Extrapolated,"[2]; 10 mg/kg, Mean of group",1.3%
same,CL,"[2]; 10 mg/kg, Mean of group",6.32 mL/min/kg
same,Dose Normalized AUClast,"[2]; 10 mg/kg, Mean of group",5030
same,Dose Normalized Cmax,"[2]; 10 mg/kg, Mean of group",3820
same,T1/2,"[2]; 10 mg/kg, Mean of group",4.6 h
same,AUCinf Extrapolated,"[2]; 10 mg/kg, individual monkeys",1.0% and 1.8% and 0.99%
same,CL,"[2]; 10 mg/kg, individual monkeys",7.5 mL/min/kg
same,Dose Normalized Cmax,"[2]; 10 mg/kg, individual monkeys",2600 and 2430 and 6430
same,T1/2,"[2]; 10 mg/kg, individual monkeys",4.3 h and 4.9 h and 4.6 h
